Assay results as given in patent US10603345B2, “Pharmaceutical composition for treating respiratory disease” (Kunming Institute of Botany, The Chinese Academy of Sciences, priority 2015, dated 2020).

Tests used:
Assay type in all cases: in vivo
[1] = system: white blood cell count and classification in BALF of COPD model mouse; assay: Effect on white blood cell count and classification in BALF of COPD model mouse; settings: COPD mouse (LPS plus smoke exposure 30 days), ig 7 d, dose/kg: dexamethasone 1 mg, Test group 1 50, 2 25, 3 10, picrinine 10, vallesamine 6, scholaricine 7, 19-epi-scholaricine 2 mg, x ± SD
Method: (§1) Animal source: 25˜30 g male ICR mouse, from laboratory animal department of Kunming Medical University, License No. SCXK (Dian) 2011-0004.
(§2) Method and route: lipopolysaccharide (LPS) plus smoke exposure was used for 30 days to induce mouse chronic obstructive pulmonary disease model; and after intragastrical administration for 7 d at a dose of 20 mL/kg, the animal was sacrificed at the eighth day.
(§3) Picrinine group (10 mg/kg), Vallesamine group (6.0 mg/kg), Scholaricine group (7.0 mg/kg), 19-epischolaricine group (2.0 mg/kg).
(§4) Sample preparation: all the samples were prepared by using 0.5% carboxymethylcellulose sodium (0.5% CMC-Na).
Group and dose: in Test group 1, the ratio of picrinine, vallesamine, scholaricine and 19-epischolaricine by weight was 48:40:29:10, and the other groups and doses thereof were as described in Example 10.
Test index: total number of white blood cells and inflammatory cell classification in bronchoalveolar lavage fluid (BALF) were used as indexes, and were determined by full-automatic hemocytometer.

[2] = system: Eotaxin in serum of asthma model mouse; assay: Effect on Eotaxin in serum of asthma model mouse; settings: ELISA, ig 7 d, dose/kg: dexamethasone 2.0 mg, Test group 1 50, 2 25, picrinine 5.0, vallesamine 3.0, scholaricine 3.0, 19-epi-scholaricine 3.5 mg, x ± SD
Method: as §1
(§5) Method and route: ovalbumin (OVA) was used to induce mouse asthma model, and after intragastrical administration for 7 d at a dose of 20 mL/kg, the animal was sacrificed at the eighth day.
(§6) Test group 1: picrinine, vallesamine, scholaricine and 19-epischolaricine prepared in Example 1.7 were homogeneously mixed at different ratios by weight (50 mg/kg), Test group 2: the alkaloid composition prepared in Example 1.4 (25 mg/kg). […]
as §4
Group and dose: in Test group 1, the ratio of picrinine, vallesamine, scholaricine and 19-epischolaricine by weight was 37:42:30:8, and the other groups and doses thereof were as described in Example 11.
Test index: eosinophil chemotactic factor (Eotaxin) in serum was used as index, and was determined by enzyme linked immunosorbent assay.

[3] = system: IgE in serum of asthma model mouse; assay: Effect on IgE in serum of asthma model mouse; settings: ELISA, ig 7 d, dose/kg: dexamethasone 2.0 mg, Test group 1 50, 2 25, picrinine 5.0, vallesamine 3.0, scholaricine 3.0, 19-epi-scholaricine 3.5 mg, x ± SD
Method: as §1, §5, §6, §4
Group and dose: In Test group 1, the ratio of picrinine, vallesamine, scholaricine and 19-epischolaricine by weight was 30:33:27:6, and the other groups and doses thereof were as described in Example 11.
Test index: immunoglobulin IgE in serum was used as index, and was determined by enzyme linked immunosorbent assay.

[4] = system: IL-10 in BALF of asthma model mouse; assay: Effect on IL-10 in BALF of asthma model mouse; settings: ELISA, ig 7 d, dose/kg: dexamethasone 2.0 mg, Test group 1 50, 2 25, picrinine 5.0, vallesamine 3.0, scholaricine 3.0, 19-epi-scholaricine 3.5 mg, x ± SD
Method: as §1, §5, §6, §4
Group and dose: in Test group 1, the ratio of picrinine, vallesamine, scholaricine and 19-epischolaricine by weight was 18:13:14:3, and the other groups and doses thereof were as described in Example 11.
Test index: IL-10 in BALF was used as index, and was determined by enzyme linked immunosorbent assay.

[5] = system: MDA in serum and BALF of asthma model mouse; assay: Effect on MDA in serum and BALF of asthma model mouse; settings: ig 7 d, dose/kg: dexamethasone 2.0 mg, Test group 1 50, 2 25, picrinine 5.0, vallesamine 3.0, scholaricine 3.0, 19-epi-scholaricine 3.5 mg, x ± SD; for MDA lavage fluid: BALF
Method: as §1, §5, §6, §4
Group and dose: in Test group 1, the ratio of picrinine, vallesamine, scholaricine and 19-epischolaricine by weight was 8:6:5:1, and the other groups and doses thereof were as described in Example 11.
Test index: MDA in serum and BALF was used as index, and was determined by thiobarbituric acid method.

[6] = system: SOD in serum and BALF of asthma model mouse; assay: Effect on SOD in serum and BALF of asthma model mouse; settings: ig 7 d, dose/kg: dexamethasone 2.0 mg, Test group 1 50, 2 25, picrinine 5.0, vallesamine 3.0, scholaricine 3.0, 19-epi-scholaricine 3.5 mg, x ± SD; for SOD lavage fluid: BALF
Method: as §1, §5, §6, §4
Group and dose: in Test group 1, the ratio of picrinine, vallesamine, scholaricine and 19-epischolaricine by weight was 12:10:9:2, and the other groups and doses thereof were as described in Example 11.
Test index: SOD in serum and BALF was used as index, and was determined by xanthine oxidase method.

[7] = system: IL-4 in BALF of asthma model mouse; assay: Effect on IL-4 in BALF of asthma model mouse; settings: ELISA, ig 7 d, dose/kg: dexamethasone 2.0 mg, Test group 1 50, 2 25, picrinine 5.0, vallesamine 3.0, scholaricine 3.0, 19-epi-scholaricine 3.5 mg, x ± SD
Method: as §1, §5, §6, §4
Group and dose: in Test group 1, the ratio of picrinine, vallesamine, scholaricine and 19-epischolaricine by weight was 25:18:15:3, and the other groups and doses thereof were as described in Example 11. […]

[8] = system: MDA in serum and homogenate of COPD model mouse; assay: Effect on MDA in serum and homogenate of COPD model mouse; settings: ig 7 d; for content of MDA (serum or homogenate not given): vallesamine 6, scholaricine 7, 19-epi-scholaricine 2 mg/kg; for MDA Homogenate: lung homogenate; for MDA Homogenate / MDA Serum: dose/kg: dexamethasone 1 mg, Test group 1 50, 2 25, 3 10, picrinine 10, vallesamine 6, scholaricine 7, 19-epi-scholaricine 2 mg, x ± SD
Method: as §1, §2, §3, §4
Group and dose: in Test group 1, the ratio of picrinine, vallesamine, scholaricine and 19-epischolaricine by weight was 9:6:5:1, and the other groups and doses thereof were as described in Example 10.
Test index: MDA in serum and homogenate was used as index, and was determined by thibabituric acid method.

[9] = system: IL-6 in serum of COPD model mouse; assay: Effect on IL-6 in serum of COPD model mouse; settings: ELISA, ig 7 d, dose/kg: dexamethasone 1 mg, Test group 1 50, 2 25, 3 10, picrinine 10, vallesamine 6, scholaricine 7, 19-epi-scholaricine 2 mg, x ± SD
Method: as §1, §2, §3, §4
Group and dose: in Test group 1, the ratio of picrinine, vallesamine, scholaricine and 19-epischolaricine by weight was 38:30:27:7, and the other groups and doses thereof were as described in Example 10.
Test index: IL-6 in serum was used as index, and was determined by enzyme linked immunosorbent assay.

[10] = system: SOD in serum and homogenate of COPD model mouse; assay: Effect on SOD in serum and homogenate of COPD model mouse; settings: ig 7 d, dose/kg: dexamethasone 1 mg, Test group 1 50, 2 25, 3 10, picrinine 10, vallesamine 6, scholaricine 7, 19-epi-scholaricine 2 mg, x ± SD; for SOD homogenate: lung homogenate
Method: as §1, §2, §3, §4
Group and dose: in Test group 1, the ratio of picrinine, vallesamine, scholaricine and 19-epischolaricine by weight was 16:11:12:3, and the other groups and doses thereof were as described in Example 10.
Test index: SOD in serum and lung homogenate was used as index, and was determined by xanthine oxidase method.

Compound: C/C=C1/CN2CC[C@@H]1[C@@](CO)(C(=O)OC)c1[nH]c3ccccc3c1C2 [vallesamine]
- Leukocyte number [1]: 1.8 ± 1.7 ×10^5/mL
- Neutrophil number [1]: 0.75 ± 0.51 ×10^5/mL
- Eotaxin [2]: 8.90 ± 2.36 pg/mL
- IgE [3]: 3.57 ± 0.99 µg/mL
- IL-10 [4]: 14.83 ± 3.49 pg/mL
- MDA lavage fluid [5]: 2.92 ± 1.48 nmol/mL
- MDA Serum [5]: 13.36 ± 6.10 nmol/mL
- SOD lavage fluid [6]: 70.88 ± 8.52 U/mL
- SOD Serum [6]: 70.53 ± 7.77 U/mL
- IL-4 [7]: 11.61 ± 2.40 pg/mL
- content of MDA (serum or homogenate not given) [8]: significantly decrease
- MDA Homogenate [8]: 7.12 ± 1.44 nmol/mL
- MDA Serum [8]: 11.07 ± 1.29 nmol/mL
- IL-6 [9]: 25.0 ± 3.6 pg/mL
- SOD homogenate [10]: 58.43 ± 5.73 U/mL
- SOD Serum [10]: 91.72 ± 12.34 U/mL

Compound: COC(=O)C1=C2Nc3c(O)cccc3[C@@]23CCN2C[C@@H]([C@H](C)O)[C@@H]1C[C@H]23 [19-epi-scholaricine, 19-epischolaricine]
- Leukocyte number [1]: 2.0 ± 1.6 ×10^5/mL
- Eotaxin [2]: 8.74 ± 1.40 pg/mL
- IgE [3]: 3.55 ± 0.87 µg/mL
- MDA lavage fluid [5]: 2.55 ± 1.47 nmol/mL
- MDA Serum [5]: 13.55 ± 4.66 nmol/mL
- SOD lavage fluid [6]: 71.82 ± 12.39 U/mL
- SOD Serum [6]: 73.85 ± 7.93 U/mL
- IL-4 [7]: 11.16 ± 3.58 pg/mL
- content of MDA (serum or homogenate not given) [8]: significantly decrease
- MDA Homogenate [8]: 6.03 ± 0.66 nmol/mL
- MDA Serum [8]: 10.94 ± 1.67 nmol/mL
- IL-6 [9]: 23.3 ± 4.1 pg/mL
- SOD homogenate [10]: 61.32 ± 9.35 U/mL

Compound: C/C=C1/CN2[C@@H]3C[C@@]45c6ccccc6N[C@]4(O3)[C@@H]2C[C@@H]1[C@H]5C(=O)OC [picrinine]
- Leukocyte number [1]: 2.1 ± 1.8 ×10^5/mL
- Eotaxin [2]: 9.03 ± 1.80 pg/mL
- IgE [3]: 3.85 ± 0.72 µg/mL
- IL-10 [4]: 13.00 ± 3.15 pg/mL
- MDA lavage fluid [5]: 3.29 ± 2.07 nmol/mL
- MDA Serum [5]: 14.03 ± 5.71 nmol/mL
- SOD lavage fluid [6]: 62.32 ± 8.22 U/mL
- SOD Serum [6]: 70.31 ± 7.30 U/mL
- IL-4 [7]: 12.60 ± 4.39 pg/mL
- MDA Homogenate [8]: 6.17 ± 1.46 nmol/mL
- MDA Serum [8]: 11.21 ± 4.46 nmol/mL
- IL-6 [9]: 23.9 ± 3.9 pg/mL
- SOD homogenate [10]: 56.01 ± 12.78 U/mL
- SOD Serum [10]: 91.15 ± 10.90 U/mL
